Seven compounds from ChEMBL document CHEMBL5053497, “Azaphilones from an Endophytic Penicillium sp. Prevent Neuronal Cell Death via Inhibition of MAPKs and Reduction of Bax/Bcl-2 Ratio” (2021) can be followed below.

For test [1], the system named is HT-22. As to the kind of experiment: Neuroprotective activity in mouse HT-22 cells assessed as inhibition of glutamate-induced nuclear condensation at 25 uM incubated for 12 hrs in presence of glutamate by Hoechst 33342 staining based fluorescence microscopic analysis. It counts as functional, cell-based.
Test [2] deals with HT-22. Put plainly: Neuroprotective activity in mouse HT-22 cells assessed as reduction in glutamate-induced intracellular Ca2+ level at 25 uM incubated for 8 hrs in presence of glutamate by Fluo-4AM staining based microscopic imaging analysis. The test is classed as functional, cell-based.
For test [3], the system named is HT-22. Put plainly: Neuroprotective activity against glutamate-induced cytotoxicity in mouse HT-22 cells assessed as cell viability at 50 to 100 uM incubated for 24 hrs in presence of glutamate by EZ-CyTox reagent based analysis. It counts as functional. Particulars: dose 50-100 µM.
Test [4] deals with HT-22. Put plainly: Inhibition of glutamate-induced MAPK activation in mouse HT-22 cells assessed as reduction in p38 phosphorylation at 10 to 20 uM incubated for 11 hrs in presence of glutamate by Western blot analysis. The test is classed as cell-based. Particulars: dose 10-20 µM. In general terms: Immunoblotting shows a protein as a band on a membrane.
Test [5] deals with HT-22. Put plainly: Inhibition of glutamate-induced MAPK activation in mouse HT-22 cells assessed as reduction in JNK phosphorylation at 10 to 20 uM incubated for 11 hrs in presence of glutamate by Western blot analysis. It counts as cell-based. Particulars: dose 10-20 µM.
The subject of test [6] is HT-22. As to the kind of experiment: Inhibition of glutamate-induced MAPK activation in mouse HT-22 cells assessed as reduction in ERK phosphorylation at 10 to 20 uM incubated for 11 hrs in presence of glutamate by Western blot analysis. It counts as cell-based. Particulars: dose 10-20 µM.
For test [7], the system named is HT-22. As to the kind of experiment: Neuroprotective activity in mouse HT-22 cells assessed as inhibition of glutamate-induced nuclear condensation at 10 to 20 uM incubated for 12 hrs in presence of glutamate by Hoechst 33342 staining based fluorescence microscopic analysis. The test is classed as functional, cell-based. Particulars: dose 10-20 µM.
For test [8], the system named is HT-22. Put plainly: Neuroprotective activity against glutamate-induced cytotoxicity in mouse HT-22 cells assessed as cell viability at 25 uM incubated for 24 hrs in presence of glutamate by EZ-CyTox reagent based analysis relative to control. It counts as functional. Particulars: read-out: Activity.
Test [9] deals with HT-22. Put plainly: Neuroprotective activity in mouse HT-22 cells assessed as reduction in glutamate-induced intracellular Ca2+ level at 10 to 20 uM incubated for 8 hrs in presence of glutamate by Fluo-4AM staining based microscopic imaging analysis. It counts as functional, cell-based. Particulars: dose 10-20 µM.
In test [10] the test system is HT-22. As to the kind of experiment: Neuroprotective activity against glutamate-induced cytotoxicity in mouse HT-22 cells assessed as cell viability at 12.5 uM incubated for 24 hrs in presence of glutamate by EZ-CyTox reagent based analysis. It counts as functional.
The subject of test [11] is HT-22. Put plainly: Neuroprotective activity against glutamate-induced cell death in mouse HT-22 cells assessed as reduction in Bax/Bcl2 ratio at 10 to 20 uM incubated for 11 hrs in presence of glutamate by Western blot analysis. It counts as functional, cell-based. Particulars: dose 10-20 µM.
Test [12] has as its system HT-22. As to the kind of experiment: Neuroprotective activity against glutamate-induced cytotoxicity in mouse HT-22 cells assessed as cell viability at 25 to 50 uM incubated for 24 hrs in presence of glutamate by EZ-CyTox reagent based analysis (reference value: 50 %). Particulars: dose 25-50 µM. The test is classed as functional.
In test [13] the test system is HT-22. Put plainly: Neuroprotective activity in mouse HT-22 cells assessed as reduction in glutamate-induced intracellular Ca2+ level at 50 uM incubated for 8 hrs in presence of glutamate by Fluo-4AM staining based microscopic imaging analysis. The test is classed as functional, cell-based.

Calls of active or inactive are those of the source. The rule behind the calls is not given here.

Consider `CC[C@H](C)/C=C(C)/C=C/C1=CC2=CC(=O)[C@](C)(O)[C@H](O)[C@H]2CO1`, for which, in the test with HT-22 [1], the inhibition result was “inactive”. For the same compound, the outcome in the test with HT-22 [2] was inactive. The outcome with HT-22 [3] was Active.

Consider `CC[C@H](C)/C=C(C)/C=C/C1=CC2=C(Cl)C(=O)[C@](C)(O)[C@H](O)C2=CO1`, for which the result with HT-22 [3] was Active.

Consider `CC[C@H](C)/C=C(C)/C=C/C1=CC2=C(Cl)C(=O)[C@](C)(OC(C)=O)C(=O)C2=CN1` [SCLEROTIORAMINE], for which the inhibition entry in the test with HT-22 [4], in the test on HT-22 [5], in the test with HT-22 [6] and with HT-22 [7] was “Active” in each case. In the test on HT-22 [8], the viability at 25 µM came out at 100%. Also, the outcome in the test with HT-22 [9], in the test with HT-22 [10] and in the test on HT-22 [11] was Active.

In the case of `CC(/C=C/C1=CC2=C(Cl)C(=O)[C@](C)(O)[C@H](O)[C@@H]2CO1)=C\[C@@H](C)CCO`, the inhibition entry with HT-22 [1] was “inactive”. For the same compound, the outcome with HT-22 [2] was inactive. Moreover, the Activity in the test with HT-22 [12] is given as 80%.

As to `CC[C@H](C)/C=C(C)/C=C/C1=CC2=C(Cl)C(=O)[C@](C)(OC)C(=O)C2=CN1CCO`, the inhibition entry in the test on HT-22 [1] was “Active”. In the test on HT-22 [8], the viability at 25 µM is 100%. The result in the test with HT-22 [13] was Active. Moreover, in the test on HT-22 [12], the Activity is 80%.

On to `CC[C@H](C)/C=C(C)/C=C/C1=CC2=C(Cl)C(=O)[C@](C)(OC(C)=O)C(=O)C2=CN1CCO`, for which, in the test with HT-22 [1], the inhibition entry was “Active”. In addition, in the test on HT-22 [8], the viability at 25 µM was 100%. Further, in the test with HT-22 [9], the outcome was Active. The Activity in the test on HT-22 [12] was determined as 80%.

Consider `CC[C@@H](/C=C(C)/C=C/C1=CC2=CC(=O)[C@](C)(O)[C@H](O)[C@H]2CO1)CO`, for which the inhibition result in the test with HT-22 [1] is “inactive”. Besides, in the test on HT-22 [2], the result was inactive. Moreover, the Activity in the test with HT-22 [12] stood at 80%.
